What was measured:
mossy fiber synapse = assay: Effect on synaptic transmission: weak HFS-induced LTP, hippocampal slices (MEA); format: cell-based, rat
Excerpt: Effect of Test Compounds on Synaptic Transmission Critical Reagents
Sucrose dissection buffer contained (in mM) sucrose (150), NaCl (40), KCl (4), NaH2PO4.H2O (0.3), MgCl.6H2O (7), NaHCO3 (26), CaCl2.2H2O (0.5), D-glucose (10), equilibrated with 95% O2 and 5% CO2 gas mixture. Artificial cerebrospinal fluid (ACSF) used during equilibration and recording contained (in mM): NaCl (124), KCl (2.7), NaH2PO4.H2O (1.25), MgSO4.7H2O (1.3), NaHCO3 (26), CaCl2.2H2O (2), D-glucose (10), Ascorbic acid (2), equilibrated with 95% O2 and 5% CO2 gas mixture. CNQX and Kynurenic acid were prepared in ACSF at a 50 μM and 1 mM concentration respectively. […] All reagents were from Sigma-Aldrich, unless otherwise indicated. […]
All data were recorded with a MEA set-up commercially available from MultiChannel Systems MCS GmbH (Reutlingen, Germany) composed of a 4-channel stimulus generator and a 60-channels amplifier head-stage connected to a 60-channels A/D card. […]
Extracellular field potential recordings. […] All data were recorded with a MEA set-up commercially available from MultiChannel Systems MCS GmbH (Reutlingen, Germany). Two adjacent electrodes of the chip were selected to stimulate the mossy fibres in the hilar region of the dentate gyrus and the fEPSP was recorded the terminal zone area of the CA3 region of the hippocampus. […]

hPDE10A2 = hPDE10A2 (Homo sapiens, UniProt Q9Y233); assay: biochemical
Chain of hPDE10A2 (Q9Y233 267-1055): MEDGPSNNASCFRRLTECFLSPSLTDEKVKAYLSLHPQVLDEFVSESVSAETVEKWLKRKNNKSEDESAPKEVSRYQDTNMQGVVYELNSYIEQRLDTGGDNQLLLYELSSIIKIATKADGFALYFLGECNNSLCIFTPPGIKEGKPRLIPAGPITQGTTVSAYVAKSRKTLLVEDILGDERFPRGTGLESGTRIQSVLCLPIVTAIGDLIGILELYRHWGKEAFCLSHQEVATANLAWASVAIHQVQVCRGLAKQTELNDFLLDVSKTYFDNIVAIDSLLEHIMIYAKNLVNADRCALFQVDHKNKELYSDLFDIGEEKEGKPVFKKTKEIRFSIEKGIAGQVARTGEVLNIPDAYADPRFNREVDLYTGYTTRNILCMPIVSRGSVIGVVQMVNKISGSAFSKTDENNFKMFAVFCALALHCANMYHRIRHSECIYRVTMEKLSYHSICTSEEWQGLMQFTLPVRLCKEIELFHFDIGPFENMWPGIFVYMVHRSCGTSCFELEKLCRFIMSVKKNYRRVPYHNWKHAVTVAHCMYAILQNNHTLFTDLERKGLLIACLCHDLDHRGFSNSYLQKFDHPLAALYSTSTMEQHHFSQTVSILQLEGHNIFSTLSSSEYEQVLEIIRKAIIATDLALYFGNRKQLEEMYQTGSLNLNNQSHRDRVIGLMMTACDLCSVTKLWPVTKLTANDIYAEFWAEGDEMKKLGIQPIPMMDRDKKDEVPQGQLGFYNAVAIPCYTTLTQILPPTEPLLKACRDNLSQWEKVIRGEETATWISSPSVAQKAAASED

C[C@@H]1CCN(c2nccc3ccc(Br)cc23)C[C@H]1c1cc(C(F)F)nc2ncnn12 [Compound 1]
penetration to the tissue (mossy fiber synapse; hippocampal slice, reported, in words): poor | effect on weak HFS-induction of long term potentiation (LTP) (mossy fiber synapse; mossy fiber synapse, hippocampal slices of male Sprague-Dawley rats, FIG. 1): did not facilitate the induction of LTP | IC50 (hPDE10A2; 60 nM cAMP substrate, read-out: hPDE10A2 pIC50 (converted)): 550 nM | Emax (hPDE10A2; read-out: hPDE10A2 Emax): 98%
